Entries after “also recorded” stand apart in the source; their conditions may differ. Like-named read-outs stand apart in the source and are kept apart here.
Legend:
U251 glioblastoma cells [1] = assay: ATP level (CellTiter Glo); type: cell-based, human; details: second day after addition of MIPP (FIG. 13)
Source text: To compare the levels of ATP in MIPP-treated glioblastoma cells versus controls treated with an equivalent volume of DMSO, the cells were harvested by trypsinization and assayed using the CellTiter Glo kit from Promega according to the manufacturer's instructions.

U251-TR cells = assay: Colony-forming assay, temozolomide-resistant cells; type: cell-based, human; details: 10 μM MIPP, 2 days (FIG. 21)
Protocol: (§1) For colony-forming assays, cells were plated in 100 mm dishes at 2,500 (U251 and U251-TR) or 1,500 (all other cell lines) cells per dish. Beginning on the day after plating, the cells were exposed to 10 μM MIPP for 2 days, with the medium and drug replenished after 1 day. The cells were fed fresh medium without drug every 2 to 3 d for a period of 10-21 days. To visualize the colonies, the dishes were washed with PBS, fixed for 10 min with ice-cold 100% methanol, and stained with 1% crystal violet in 35% methanol. After 2-3 washes with water, colonies containing at least 50 cells were counted using a dissecting microscope or a Protocol 2 colony counter.

[2] = test system: LN229, U2OS, MCF7, SW480 and PANC-1 cancer cell lines; assay: MTT cell viability assay, other cancer cell lines; type: cell-based; details: Homo sapiens; 10 μM MIPP; all of the cancer cell lines (FIG. 27); read-out: reduction of relative cell viability
active Rab7 = assay: Pull-down assay for active Rab7; type: cell-based, human; details: U251; 10 μM; up to 24 h
Protocol: (§2) GST-fusion proteins were produced in E. coli BL21 (DE3) pLysS and the fusion proteins were bound to glutathione-sepharose 4B beads. Pull-down assays for active Rab5 using the GST-Rabaptin-5 beads were performed. Assays for active Rab7 were performed. For each determination cell lysates were prepared from ten pooled 10 cm cultures. Monoclonal antibodies against Rab5 or Rab7 were used to probe western blots of the proteins collected on the beads. Results were quantified and normalized as described above for Rac1 and Arf6.

U251 glioblastoma cells [3] = assay: Colony-forming assay; type: cell-based, human; details: cells treated for 2 days (FIGS. 15, 40)
[4] = test system: temozolomide-resistant U251 cells (U251-TR); assay: MTT cell viability assay, temozolomide-resistant cells; type: cell-based, human
[5] = MTT cell viability assay, mammary epithelial cells; type: cell-based; details: human, MCF-10A mammary epithelial cells, 10 μM MIPP (FIG. 27), read-out: reduction in cell viability
[6] = test system: LN229, U2OS, MCF7, SW480 and PANC-1 cancer cell lines; assay: Colony-forming assay, other cancer cell lines; type: cell-based, human; details: exposure for 2 days (FIG. 28)
Protocol: as §1
Also disclosed herein is an analysis of the effects of the compound in several other cell lines. These include an additional glioma cell line (LN229), osteosarcoma cells (U2OS), and breast (MCF7), colon (SW480) and pancreatic (PANC-1) carcinoma cells. Similar to the results with U251 cells, 10 μM MIPP induced dramatic cytoplasmic vacuolization in all of the cell lines, as shown in FIG. 26.

U251 glioblastoma cells [7] = assay: Cell morphology / vacuolization by phase-contrast microscopy; type: cell-based, human
U251 glioblastoma cells [8] = assay: MTT cell viability assay; type: cell-based, human; details: for IC50: Homo sapiens, U-251, 48 h
active Rab5 = assay: Pull-down assay for active Rab5; type: cell-based, human; details: U251; 10 μM; 4 h and 24 h
Protocol: as §2

[9] = MTT cell viability assay, normal fibroblasts; type: cell-based; details: human, normal skin fibroblasts, 10 μM MIPP (FIG. 27), read-out: reduction in cell viability
active Rac1 = assay: Pull-down assay for activated Rac1; type: cell-based, human; details: U251; 10 μM MIPP; 4 h or 24 h
Protocol: (§3) Assays for activated Rac1 and Arf6 were performed using EZ-Detect Rac1 or Arf6 activation kits. These assays employ either a GST-fusion protein containing the p21-binding domain of p21-activated protein kinase 1 (PAK1) to selectively bind active Rac1 in whole cell lysates, or GST-GGA3 (Golgi-associated gamma adaptin ear-containing Arf binding protein 3) to pull down active Arf6. The active Rac1 or Arf6 collected on the glutathione beads were subjected to western blot analysis and the chemiluminescence signals were quantified using Alpha Innotech FluorChem HD2 imaging system. The values for active protein in each sample were normalized to α-tubulin. Results were expressed as either the total active Rac1 or Arf6, or the ratio of the active GTPase to the total Rac1 or Arf6 measured in aliquots of the cell lysate.

active Arf6 = assay: Pull-down assay for activated Arf6; type: cell-based, human; details: U251; 10 μM MIPP; 4 h or 24 h
Protocol: as §3

Cc1[nH]c2ccccc2c1C=CC(=O)c1ccncc1 [MIPP, 3-(2-methyl-1H-indol-3-yl)-1-(4-pyridinyl)-2-propen-1-one]
ATP level (U251 glioblastoma cells [1]): significant decrease in ATP
survival (colony formation) (U251-TR cells): significant decline in survival
cytotoxicity at 10 μM [2]: 50 to 90%
amount / activation state of active Rab7 (active Rab7): more than doubling by 24 h
colony formation (U251 glioblastoma cells [3]): non-viable in colony-forming assays; also recorded: reduced colony formation
methuosis and cell viability in TMZ-resistant cells, in words ([4]; FIGS. 41A-41B): induced methuosis and reduced cell viability in the TMZ-resistant cells
IC50 ([4]; Homo sapiens, U-251, 48 h, U251-TR, MTT dose-response over a 2-day period (FIG. 20)): 6 µM
cytotoxicity at 10 μM [5]: 30%
long-term cell survival (colony formation) [6]: significantly reduced long-term cell survival in all cases
cell morphology / vacuolization (U251 glioblastoma cells [7]; 1 μM): behaved similarly to Compound I when tested at 1 μM
cell morphology / vacuolization (U251 glioblastoma cells [7]; 10 μM): induced vacuoles that were larger and more numerous than those induced by Compound I
IC50 (U251 glioblastoma cells [8]; U251, two days, medium and compound replenished after the first day (FIG. 37D), read-out: IC50 (cell viability)): 4.8 µM
IC50 (U251 glioblastoma cells [8]; parental U251, MTT dose-response over a 2-day period (FIG. 20), read-out: IC50, parental cells): 3.5 µM
relative cell viability, in words (U251 glioblastoma cells [8]; U251, 10 μM, first two days of treatment (FIG. 12)): marked decrease in the relative cell viability
amount of active Rab5 (active Rab5): striking decline in the amount of active Rab5
cytotoxicity at 10 μM [9]: 40%
amount of active Rac1 (active Rac1): no significant effects
amount of active Arf6 (active Arf6): no significant effects

Reference: patent US9061994B1, “Materials and methods useful to induce vacuolization, cell death, or a combination thereof” (The University of Toledo, priority 2011, dated 2015)
